# Test results: patent publication EP0729956B1, “Benzothiophene compounds, intermediates, compositions, and methods” (ELI LILLY AND COMPANY, priority 1995, dated 1996)
# Structures can show the parent of a compound that is named as a salt. Where two headings read alike, the source gives them in different places.
# Legend:
# ovariectomized rats [1] = assay: Serum cholesterol analysis (OVX rat, 4-day dosing); type: in vivo, Sprague Dawley rats; conditions: Rattus norvegicus, po, 96 h, daily for 4 days, read-out: Serum Cholesterol (% decrease vs. OVX)
# From the text: (§1) Seventy-five day old female Sprague Dawley rats (weight range of 200 to 225g) were obtained from Charles River Laboratories (Portage, MI). The animals were either bilaterally ovariectomized (OVX) or exposed to a Sham surgical procedure at Charles River Laboratories, and then shipped after one week. Upon arrival, they were housed in metal hanging cages in groups of 3 or 4 per cage and had ad libitum access to food (calcium content approximately 0.5%) and water for one week. Room temperature was maintained at 22.2° ± 1.7° C with a minimum relative humidity of 40%. The photoperiod in the room was 12 hours light and 12 hours dark.
# (§2) After a one week acclimation period (therefore, two weeks post-OVX) daily dosing with test compound was initiated. 17a-ethynyl estradiol or the test compound were given orally, unless otherwise stated, as a suspension in 1% carboxymethylcellulose or dissolved in 20% cyclodextrin. Animals were dosed daily for 4 days. Following the dosing regimen, animals were weighed and anesthetized with a ketamine: Xylazine (2:1, V:V) mixture and a blood sample was collected by cardiac puncture. The animals were then sacrificed by asphyxiation with CO2, the uterus was removed through a midline incision, and a wet uterine weight was determined.
# Blood samples were allowed to clot at room temperature for 2 hours, and serum was obtained following centrifugation for 10 minutes at 3000 rpm. Serum cholesterol was determined using a Boehringer Mannheim Diagnostics high performance cholesterol assay. Briefly the cholesterol was oxidized to cholest-4-en-3-one and hydrogen peroxide. The hydrogen peroxide was then reacted with phenol and 4-aminophenazone in the presence of peroxidase to produce a p-quinone imine dye, which was read spectrophotemetrically at 500 nm. Cholesterol concentration was then calculated against a standard curve. The entire assay was automated using a Biomek Automated Workstation.
# [2] = system: MCF-7 breast adenocarcinoma cells; assay: MCF-7 Proliferation Assay (tritiated thymidine); type: cell-based; conditions: Homo sapiens, MCF7; MCF-7 cells, 48 hours with drug, tritiated thymidine pulse 4 hours
# Description: MCF-7 breast adenocarcinoma cells (ATCC HTB 22) were maintained in MEM (minimal essential medium, phenol red-free, Sigma, St. Louis, MO) supplimented with 10% fetal bovine serum (FBS) (V/V), L-glutamine (2 mM), sodium pyruvate (1 mM), HEPES {(N-[2-hydroxyethyl]piperazine-N'-[2-ethanesulfonic acid]10 mM}, non-essential amino acids and bovine insulin (1 ug/mL) (maintenance medium). Ten days prior to assay, MCF-7 cells were switched to maintenance medium supplemented with 10% dextran coated charcoal stripped fetal bovine serum (DCC-FBS) assay medium) in place of 10% FBS to deplete internal stores of steroids. MCF-7 cells were removed from maintenance flasks using cell dissociation medium (Ca++/Mg++ free HBSS (phenol red-free) supplemented with 10 mM HEPES and 2 mM EDTA). Cells were washed twice with assay medium and adjusted to 80,000 cells/mL. Approximately […] (8,000 cells) were added to flat-bottom microculture wells (Costar 3596) and incubated at 37° C in a 5% CO2 humidified incubator for 48 hours to allow for cell adherence and equilibration after transfer. Serial dilutions of drugs or DMSO as a diluent control were prepared in assay medium and […] to triplicate microcultures followed by […] assay medium for a final volume of […]. After an additional 48 hours at 37° C in a 5% CO2 humidified incubator, microcultures were pulsed with tritiated thymidine (1 uCi/well) for 4 hours. Cultures were terminated by freezing at -70° C for 24 hours followed by thawing and harvesting of microcultures using a Skatron Semiautomatic Cell Harvester. Samples were counted by liquid scintillation using a Wallac BetaPlace b counter. Results in Table 4 below show the IC50 for certain compounds of the present invention.
# ovariectomized rats [3] = system: ovariectomized rats; parameters: species or system Sprague Dawley rats; conditions: rat, in vivo, po
# From the text: as §1, §2
# Uteri were kept at 4° C until time of enzymatic analysis. The uteri were then homogenized in 50 volumes of 50 mM Tris buffer (pH - 8.0) containing 0.005% Triton X-100. Upon addition of 0.01% hydrogen peroxide and 10 mM O-phenylenediamine (final concentrations) in Tris buffer, increase in absorbance was monitored for one minute at 450 nm. The presence of eosonophils in the uterus is an indication of estrogenic activity of a compound. The maximal velocity of a 15 second interval was determined over the initial, linear portion of the reaction curve.
# [4] = system: ovariectomized test animals; assay: Osteoporosis Test Procedure (OVX rat, 35-day dosing, distal femur metaphysis X-ray image analysis); type: in vivo, Sprague Dawley rats; conditions: OVX rats, daily for 35 days, mean ± SEM
# From the text: as §1
# Following the General Preparation Procedure, infra, the rats were treated daily for 35 days (6 rats per treatment group) and sacrificed by carbon dioxide asphyxiation on the 36th day. The 35 day time period was sufficient to allow maximal reduction in bone density, measured as described herein. At the time of sacrifice, the uteri were removed, dissected free of extraneous tissue, and the fluid contents were expelled before determination of wet weight in order to confirm estrogen deficiency associated with complete ovariectomy. […] The uteri were then placed in 10% neutral buffered formalin to allow for subsequent histological analysis.
# The right femurs were excised and digitilized x-rays generated and analyzed by an image analysis program (NIH image) at the distal metaphysis. The proximal aspect of the tibiae from these animals were also scanned by quantitative computed tomography.
# In accordance with the above procedures, compounds of the present invention and ethynyl estradiol (EE2) in 20% hydroxypropyl b-cyclodextrin were orally administered to test animals. Distal femur metaphysis data presented in Tables 2 and 3 below are the results of formula I compound treatments compared to intact and ovariectomized test animals. Results are reported as the mean ± the standard error of the mean.
IC50 [2] [nM],Uterine EPO (V. max) (ovariectomized rats [3]; 0.01 mg/kg),Uterine EPO (V. max) (ovariectomized rats [3]; 0.1 mg/kg),Uterine EPO (V. max) (ovariectomized rats [3]; 1 mg/kg),Uterine EPO (V. max) (ovariectomized rats [3]; 10 mg/kg),SMILES,inhibition in vivo at 0.01 mg/kg (ovariectomized rats [1]) [%],inhibition in vivo at 0.1 mg/kg (ovariectomized rats [1]) [%],inhibition in vivo at 1 mg/kg (ovariectomized rats [1]) [%],inhibition in vivo at 10 mg/kg (ovariectomized rats [1]) [%],"Distal Femur Metaphysis (X-ray Image Analysis-Gray Score) ([4]; Table 3, oral, dose 0.1 mg/kg, OVX control 6.2 ± 1.4, Sham 31.1 ± 6.3)","Distal Femur Metaphysis (X-ray Image Analysis-Gray Score) ([4]; Table 3, oral, dose 1.0 mg/kg, OVX control 6.2 ± 1.4, Sham 31.1 ± 6.3)","Distal Femur Metaphysis (X-ray Image Analysis-Gray Score) ([4]; Table 3, oral, dose 3.0 mg/kg, OVX control 6.2 ± 1.4, Sham 31.1 ± 6.3)","Distal Femur Metaphysis (X-ray Image Analysis-Gray Score) ([4]; Table 2, oral in 20% hydroxypropyl b-cyclodextrin, dose 0.1 mg/kg, OVX control 8.1 ± 1.8, Sham 27.2 ± 6.0)","Distal Femur Metaphysis (X-ray Image Analysis-Gray Score) ([4]; Table 2, oral, dose 1.0 mg/kg, OVX control 8.1 ± 1.8, Sham 27.2 ± 6.0)","Distal Femur Metaphysis (X-ray Image Analysis-Gray Score) ([4]; Table 2, oral, dose 10.0 mg/kg, OVX control 8.1 ± 1.8, Sham 27.2 ± 6.0)"
4,1.8,4.8,5.4,–,"Oc1ccc(-c2sc3ccccc3c2Oc2ccc(OCCN3CCCC3)cc2)cc1 [Example 3, [3-[4-[2-(1-pyrolidinyl)ethoxy]phenoxy]-2-(4-hydroxyphenyl)]benzo[b]thiophene]",50.6,47.8,49.2,–,–,–,–,–,–,–
0.028,2.1,2.4,3.6,–,"Oc1ccc(-c2sc3cc(O)ccc3c2Oc2ccc(OCCN3CCCCC3)cc2)cc1 [Example 19, [6-hydroxy-3-[4-[2-(1-piperidinyl)-ethoxy]phenoxy]-2-(4-hydroxyphenyl)]benzo[b]thiophene oxalate]",25.1,45.3,53.6,–,–,–,–,14.7 ± 1.9,15.0 ± 3.5∗,15.3 ± 4.0∗
0.05,1.2,4.8,9.3,–,"Oc1ccc(-c2sc3cc(O)ccc3c2Oc2ccc(OCCN3CCCC3)cc2)cc1 [Example 21, [6-Hydroxy-3-[4-[2-(1-pyrolidinyl)ethoxy]phenoxy]-2-(4-hydroxyphenyl)]benzo[b]thiophene]",26.8,47.5,54.4,–,–,–,–,–,–,–

# More lines, now with the values behind:
SMILES,IC50 [2] [nM],Uterine EPO (V. max) (ovariectomized rats [3]; 0.01 mg/kg),Uterine EPO (V. max) (ovariectomized rats [3]; 0.1 mg/kg),Uterine EPO (V. max) (ovariectomized rats [3]; 1 mg/kg),Uterine EPO (V. max) (ovariectomized rats [3]; 10 mg/kg),inhibition in vivo at 0.01 mg/kg (ovariectomized rats [1]) [%],inhibition in vivo at 0.1 mg/kg (ovariectomized rats [1]) [%],inhibition in vivo at 1 mg/kg (ovariectomized rats [1]) [%],inhibition in vivo at 10 mg/kg (ovariectomized rats [1]) [%],"Distal Femur Metaphysis (X-ray Image Analysis-Gray Score) ([4]; Table 3, oral, dose 0.1 mg/kg, OVX control 6.2 ± 1.4, Sham 31.1 ± 6.3)","Distal Femur Metaphysis (X-ray Image Analysis-Gray Score) ([4]; Table 3, oral, dose 1.0 mg/kg, OVX control 6.2 ± 1.4, Sham 31.1 ± 6.3)","Distal Femur Metaphysis (X-ray Image Analysis-Gray Score) ([4]; Table 3, oral, dose 3.0 mg/kg, OVX control 6.2 ± 1.4, Sham 31.1 ± 6.3)","Distal Femur Metaphysis (X-ray Image Analysis-Gray Score) ([4]; Table 2, oral in 20% hydroxypropyl b-cyclodextrin, dose 0.1 mg/kg, OVX control 8.1 ± 1.8, Sham 27.2 ± 6.0)","Distal Femur Metaphysis (X-ray Image Analysis-Gray Score) ([4]; Table 2, oral, dose 1.0 mg/kg, OVX control 8.1 ± 1.8, Sham 27.2 ± 6.0)","Distal Femur Metaphysis (X-ray Image Analysis-Gray Score) ([4]; Table 2, oral, dose 10.0 mg/kg, OVX control 8.1 ± 1.8, Sham 27.2 ± 6.0)"
"COc1ccc(-c2sc3cc(OC)ccc3c2Oc2ccc(OCCN3CCCCC3)cc2)cc1 [Example 10, [6-methoxy-3-[4-[2-(1-piperidinyl)ethoxy]-phenoxy]-2-(4-methoxyphenyl)]benzo[b]thiophene]",2,–,12.0,17.7,4.8,–,50.2,59,38.9,15.3 ± 3.0,15.2 ± 3.7,18.5 ± 3.2∗,–,–,–
"CCN(CC)CCOc1ccc(Oc2c(-c3ccc(O)cc3)sc3cc(O)ccc23)cc1 [Example 23, [6-Hydroxy-3-[4-[2-(1-N,N-diethylamino)ethoxy]phenoxy]-2-(4-hydroxyphenyl)]benzo[b]thiophene]",0.08,3.3,84.3,150.6,–,36.2,47.2,66.1,–,–,–,–,–,–,–
"Oc1ccc(-c2sc3cc(O)ccc3c2Sc2ccc(OCCN3CCCCC3)cc2)cc1 [Example 53, [6-Hydroxy-3-[4-[2-(1-piperidinyl)ethoxy]-thiophenoxy]-2-(4-hydroxyphenyl)]benzo[b]thiophene]",0.28,–,0.9,1.3,4.8,–,62.7,57.5,58.7,–,–,–,–,–,–
